In brackets after ≈: the same amount, converted by molar mass.

Usually solubility (thermodynamic) stands for solubility found after equilibrating the solid with the medium.

The data set can be described thus: Solubility test of Gatifloxacin (Test Example 1). Format: physicochemical. Particulars: for solubility thermodynamic at 3 h: pH 6.5, aqueous buffer, thermodynamic from solid, pH 6.5, stirred 3 hours at room temperature. The protocol: According to the formulations shown in Table 1, a saturated solution of Gatifloxacin containing the given amount of each additive was prepared. The solution containing sodium dihydrogen phosphate, boric acid or malonic acid was adjusted to a pH of 6.5 with hydrochloric acid and sodium hydroxide, and then stirred for 3 hours at room temperature. The solution containing nicotinamide was adjusted to 6.0 with hydrochloric acid and sodium hydroxide, filled in glass ampoules and shaken for 2 days at room temperature. As a control, a saturated solution of Gatifloxacin containing no additive was prepared, its pH was adjusted to 6.5 with hydrochloric acid and sodium hydroxide, and stirred for 3 hours at room temperature. Each solution was filtered through a membrane filter (0.45 μm), and the filtrate (1 mL) was precisely measured and a diluent was added thereto to precisely make its volume up to 50 mL. The resultant solution (3 mL) was precisely measured, an internal standard solution (3 mL) was precisely added thereto, and a diluent was added thereto to precisely make its volume up to 20 mL to prepare a sample solution. The concentration of Gatifloxacin was measured in the sample solution (20 μL) under the following HPLC conditions. The solubility was converted in terms of Gatifloxacin 3/2 hydrate.
Detector: Ultraviolet absorptiometer (measurement wavelength: 280 nm) Column: Inertsil ODS-2 […], 4.6 mmφ×150 mm, GL Sciences Inc. Column temperature: 40° C. Mobile phase: acetonitrile (180 mL), water (810 mL) and triethylamine (10 mL) were mixed, and the pH was adjusted to 4.5 with phosphoric acid. Flow rate: 0.8 mL/min Injection amount: 20 μL Internal standard solution: a mobile phase solution of methyl p-aminobenzoate (1→10000) Diluent: Mixture of acetonitrile, water and phosphoric acid (200:800:0.8)

For the compound `COc1c(N2CCNC(C)C2)c(F)cc2c(=O)c(C(=O)O)cn(C3CC3)c12` (racemic) [Gatifloxacin, (±)-1-cyclopropyl-6-fluoro-1,4-dihydro-8-methoxy-7-(3-methyl-1-piperazinyl)-4-oxo-3-quinolinecarboxylic acid], the “Solubility of Gatifloxacin” value (nicotinamide 1 w/v %, pH 6.0, shaken 2 days at room temperature, in terms of 3/2 hydrate) is recorded as 1.41 w/v %. Moreover, the thermodynamic solubility at 3 h (sodium dihydrogen phosphate dihydrate 0.5 w/v %, in terms of 3/2 hydrate) was found to be 7200 µg/mL (≈ 19.2 mM); the solubility (thermodynamic) at 3 h (sodium dihydrogen phosphate dihydrate 1 w/v %, in terms of 3/2 hydrate) worked out at 9100 µg/mL (≈ 24.2 mM); the solubility (thermodynamic) at 3 h (saturated solution containing boric acid 0.5 w/v %, boric acid 0.5 w/v %, in terms of 3/2 hydrate) turned out to be 5800 µg/mL (≈ 15.5 mM); the solubility (thermodynamic) at 3 h (saturated solution containing boric acid 1 w/v %, boric acid 1 w/v %, in terms of 3/2 hydrate) was ~6000 µg/mL (≈ 16 mM); the solubility (thermodynamic) at 3 h (saturated solution containing malonic acid 0.5 w/v %, malonic acid 0.5 w/v %, in terms of 3/2 hydrate) came out at 9600 µg/mL (≈ 25.6 mM); the solubility (thermodynamic) at 3 h (saturated solution containing malonic acid 1 w/v %, malonic acid 1 w/v %, in terms of 3/2 hydrate) was found to be 9300 µg/mL (≈ 24.8 mM). The same compound yielded a solubility (thermodynamic) at 3 h (saturated solution containing no additive (control), no additive (control), in terms of Gatifloxacin 3/2 hydrate) of 5300 µg/mL (≈ 14.1 mM).
